Key:
Src (Y416) = assay: Immunoblotting of neutrophil lysates, Src phosphorylation; assay type: cell-based, human; conditions: 0.1 μM fMLF-stimulated neutrophils
Method: (§1) Neutrophils incubated with bletinib or DMSO at 37° C. for 5 min were stimulated with 0.1 μM fMLF for 30 s. The proteins were separated from neutrophil lysates through electrophoresis (12% sodium dodecyl sulphate-polyacrylamide gel electrophoresis) and then transferred to nitrocellulose membranes. The target proteins were identified through immunoblotting with specific antibodies against p38, p-p38, Akt, p-Akt S473, ERK, p-ERK, INK, p-JNK, Src, p-SFKs Y416, p-Src Y416, Lyn, p-Lyn (Y396), Fgr, p-Fgr (Y412), Hck, p-Hck (Y410), Btk, p-Btk Y223, Vav, and p-Vav (Y174) as well as with HRP-conjugated secondary anti-rabbit antibody (Cell Signaling Technology). The signal intensity was detected and quantified using the UVP BioSpectrum Imaging System (Analytik Jena, USA).

human neutrophils [1] = assay: Cytotoxicity assessed using LDH release; assay type: cell-based
Method: (§2) FIG. 1 Bletinib suppressed superoxide anion production in stimulated human neutrophils. Neutrophils (6×10^5 cells/mL) were incubated with 0.1% DMSO or […] bletinib for 5 min before activation with stimuli. Superoxide anion production was induced by (A) fMLF, (B) MMK-1, (C) NaF, or (D) PMA and then measured using ferricytochrome c reduction method. (E) Cytotoxicity was assessed using LDH release. (F) Superoxide scavenging capacity of bletinib was assessed in a xanthine/xanthine oxidase cell-free system. WST-1 reduction was measured through spectrophotometry at 450 nm, with 20 U/mL superoxide dismutase as the positive control.

Hck = Hck (Homo sapiens, UniProt P08631); assay: Cell-free ADP-Glo kinase assay, Hck; assay type: biochemical; conditions: 1-10 μM bletinib or 0.1-3 μM PP2; 125 μM ATP; concentration-dependent
Sequence of Hck (P08631 whole entry): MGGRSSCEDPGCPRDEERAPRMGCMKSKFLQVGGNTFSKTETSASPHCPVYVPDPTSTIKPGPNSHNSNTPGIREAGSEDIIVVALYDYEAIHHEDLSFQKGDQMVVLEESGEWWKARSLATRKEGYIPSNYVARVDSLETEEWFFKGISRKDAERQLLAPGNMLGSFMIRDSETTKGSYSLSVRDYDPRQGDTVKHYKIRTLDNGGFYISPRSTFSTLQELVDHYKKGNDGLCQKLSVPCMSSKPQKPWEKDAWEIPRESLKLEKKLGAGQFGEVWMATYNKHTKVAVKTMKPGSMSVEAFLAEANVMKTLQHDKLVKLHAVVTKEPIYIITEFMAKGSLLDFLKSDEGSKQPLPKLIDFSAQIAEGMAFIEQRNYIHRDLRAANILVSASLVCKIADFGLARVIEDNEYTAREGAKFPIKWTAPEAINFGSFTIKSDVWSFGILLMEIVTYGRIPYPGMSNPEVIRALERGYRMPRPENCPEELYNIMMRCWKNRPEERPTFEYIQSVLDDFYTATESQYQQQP
Method: (§3) The kinase activity of SFKs was assessed using an ADP-Glo kinase assay kit (Promega, Fitchburg, USA) according to manufacturer instructions. […] The ADP-Glo reagent was used to end the kinase reaction and remove the remnant ATP; next, the kinase, which converted ADP to ATP, detection reagent was added and incubated for 30 min. Luciferin/luciferase luminescence was determined on an Infinite 200 Pro (Tecan, Switzerland).

[2] = Superoxide scavenging capacity, WST-1 reduction; assay type: biochemical; conditions: WST-1 reduction at 450 nm
Method: as §2

human neutrophils [3] = assay: Intracellular superoxide/ROS production, DHR123 flow cytometry; assay type: cell-based; conditions: 0.1-3 μM bletinib; 0.1 μM fMLF; dose-dependent
Method: Human neutrophils (2.5×10^6 cells/mL) were labelled using 2 μM dihydrorhodamine 123 (DHR123) at 37° C. for 10 min and then incubated with DMSO or bletinib for 5 min and then stimulated with 0.1 μM fMLF/0.5 μg/mL CB for 15 min. The fluorescence intensity was detected through flow cytometry to evaluate intracellular superoxide anion production of human neutrophils.

human neutrophils [4] = assay: Total ROS production, luminol-amplified chemiluminescence; assay type: cell-based; conditions: 0.1-3 μM bletinib; 0.1 μM fMLF; dose-dependent
Method: Human neutrophils (2×10^6 cells/mL) were preincubated with 6 U mL^−1 horseradish peroxidase (HRP) and 37.5 μM luminol in a 96-well plate at 37° C. for 5 min. Cells were incubated with DMSO or bletinib for 5 min, followed by 0.1 μM fMLF stimulation. Chemiluminescence was then detected and analysed in real time on a 96-well chemiluminometer (Tecan Infinite F200 Pro; Mannedorf, Switzerland).

human neutrophils [5] = assay: NET photography (immunofluorescence and scanning electron microscopy); assay type: cell-based; conditions: 10 nM PMA; 1-10 μM bletinib
Method: Neutrophils (3×10^5 cells/mL) were incubated with DMSO or bletinib for 10 min before being activated with 10 nM PMA for 2 h. Neutrophils were fixed with 4% paraformaldehyde and treated with 5% goat serum blocking buffer for 1 h and then treated with […] anti-MPO (Abcam) and 5 μg/mL anti-NE (Merck Millipore) antibodies for 1 h. These cells were then treated with the Alexa 488 or 568-labelled secondary goat anti-rabbit antibody for another 1 h. Thereafter, the cells were washed with PBS and treated with 1 ng/mL Hoechst 33342 and ProLong Gold antifade reagent (Invitrogen, CA, USA). Immunofluorescence microscopy and scanning electron microscopy were both used to observe the NET formation of activated neutrophils.

Src = Src (Homo sapiens, UniProt P12931); assay: Cell-free ADP-Glo kinase assay, Src; assay type: biochemical; conditions: 1-10 μM bletinib or 0.1-3 μM PP2; 125 μM ATP; concentration-dependent
Sequence of Src (P12931 whole entry): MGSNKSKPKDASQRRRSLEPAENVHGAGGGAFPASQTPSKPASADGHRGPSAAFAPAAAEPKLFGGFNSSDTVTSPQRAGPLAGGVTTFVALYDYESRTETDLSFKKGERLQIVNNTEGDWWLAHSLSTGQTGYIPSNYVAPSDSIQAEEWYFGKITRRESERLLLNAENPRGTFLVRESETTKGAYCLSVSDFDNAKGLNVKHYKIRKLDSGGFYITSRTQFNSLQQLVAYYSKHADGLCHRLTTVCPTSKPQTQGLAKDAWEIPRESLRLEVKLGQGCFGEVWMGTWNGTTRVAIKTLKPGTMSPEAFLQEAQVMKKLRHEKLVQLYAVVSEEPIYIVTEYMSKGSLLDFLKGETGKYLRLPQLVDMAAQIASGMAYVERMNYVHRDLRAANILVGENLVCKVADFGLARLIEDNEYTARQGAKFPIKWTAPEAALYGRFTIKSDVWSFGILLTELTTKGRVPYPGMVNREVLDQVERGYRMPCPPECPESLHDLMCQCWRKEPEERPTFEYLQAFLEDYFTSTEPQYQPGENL
Method: as §3

CD18 (integrin β2) = assay: Surface CD18 expression, flow cytometry; assay type: cell-based, human; conditions: 1-10 μM bletinib; 0.1 μM fMLF/CB
Method: Neutrophils (5×10^5 cells/mL) were incubated with bletinib or DMSO for 5 min and then activated through incubation with 0.1 μM fMLF/1 μg/mL CB for 5 min. After centrifugation at 200×g for 8 min at 4° C., the cells were resuspended in 5% bovine serum albumin with FITC-conjugated antibodies against CD18 or CD11b on ice in the dark for 15 min. The fluorescent intensity was then analysed through fluorescence-activated cell sorting.

p-ERK = assay: Immunoblotting of neutrophil lysates, ERK phosphorylation; assay type: cell-based, human; conditions: 10 μM bletinib; 0.1 μM fMLF
Method: as §1

Hck (Y410) = assay: Immunoblotting of neutrophil lysates, Hck phosphorylation; assay type: cell-based, human; conditions: 0.1 μM fMLF-stimulated neutrophils
Method: as §1

Lyn (Y396) = assay: Immunoblotting of neutrophil lysates, Lyn phosphorylation; assay type: cell-based, human; conditions: 0.1 μM fMLF-stimulated neutrophils
Method: as §1

Akt (S473) = assay: Immunoblotting of neutrophil lysates, Akt phosphorylation; assay type: cell-based, human; conditions: 10 μM bletinib; 0.1 μM fMLF
Method: as §1

Fgr (Y412) = assay: Immunoblotting of neutrophil lysates, Fgr phosphorylation; assay type: cell-based, human; conditions: 0.1 μM fMLF-stimulated neutrophils
Method: as §1

human neutrophils [6] = assay: Neutrophil adhesion to bEnd.3 cells; assay type: cell-based; conditions: 1-10 μM bletinib; fMLF/CB
Method: Human neutrophils (10^6 cells/mL) were labelled with Hoechst 33342 and then incubated with DMSO or Bletinib for 5 min. After centrifugation, the cells were resuspended and activated with 0.1 μM fMLF/1 μg/mL CB for 10 min before incubation with bEnd.3 cells at 37° C. for 30 min. After they were washed with HBSS, the cells were fixed with 4% paraformaldehyde and the neutrophils that adhered to the bEnd.3 cells were detected and quantified on a motorised inverted microscope (Olympus, Japan).
Adhesion and transmigration are both crucial steps in the neutrophil recruitment cascade during inflammation. In this example, to examine whether bletinib would interfere the adhesion and transmigration process, human neutrophils (10^6 cells/mL) were first labeled with Hoechst 33342, then pre-treated with bletinib (1-10 μM) and followed by stimulation with fMLF, then incubated with bEnd.3 cells in 37° C. for 30 min. […] Furthermore, IL-8 served as a chemotactic factor for the attraction of neutrophils.

Fgr = Fgr (Homo sapiens, UniProt P09769); assay: Cell-free ADP-Glo kinase assay, Fgr; assay type: biochemical; conditions: 1-10 μM bletinib or 0.1-3 μM PP2; 125 μM ATP; concentration-dependent
Sequence of Fgr (P09769 whole entry): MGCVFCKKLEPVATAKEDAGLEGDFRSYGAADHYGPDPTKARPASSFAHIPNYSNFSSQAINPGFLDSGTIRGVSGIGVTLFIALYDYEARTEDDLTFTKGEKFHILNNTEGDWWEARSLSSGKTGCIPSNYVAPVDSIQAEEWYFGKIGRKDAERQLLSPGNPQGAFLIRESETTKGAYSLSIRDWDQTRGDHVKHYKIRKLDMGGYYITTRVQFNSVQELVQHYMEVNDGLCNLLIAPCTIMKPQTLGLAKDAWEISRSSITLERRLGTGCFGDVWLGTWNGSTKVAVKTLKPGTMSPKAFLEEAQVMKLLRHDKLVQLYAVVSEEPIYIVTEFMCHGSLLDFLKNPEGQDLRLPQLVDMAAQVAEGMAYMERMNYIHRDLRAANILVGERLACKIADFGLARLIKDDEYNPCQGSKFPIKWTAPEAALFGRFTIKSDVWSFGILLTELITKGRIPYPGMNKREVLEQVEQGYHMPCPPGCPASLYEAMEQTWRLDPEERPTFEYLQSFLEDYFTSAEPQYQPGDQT
Method: as §3

Q: Which “phosphorylation of Src (Y416)” value (Src (Y416)) does the source give for `COc1cc(O)cc(CCc2c(Cc3ccc(O)cc3)ccc(O)c2Cc2ccc(O)cc2)c1` [bletinib, 3,3′-dihydroxy-2′,6′-bis(p-hydroxybenzyl)-5-methoxybibenzyl] here?
A: Its value is “significantly inhibited”.

Q: What about the “cytotoxicity (LDH release)” value (human neutrophils [1]) of the same compound?
A: The value was “did not exhibit cytotoxicity”.

Q: And the “kinase activity of Hck” value (Hck)?
A: Its value is “inhibited”.

Q: What about the “ROS scavenging activity in the cell-free xanthine and xanthine oxidase system” value [2] of the same compound?
A: The value was “did not exhibit”.

Q: What about the “intracellular ROS production, flow cytometry (DHR123 MFI)” value (human neutrophils [3]) of the same compound?
A: Its value is “significantly suppressed”.

Q: And the “ROS production, luminol-amplified chemiluminescence” value (human neutrophils [4])?
A: The value was “significantly suppressed”.

Q: And the “NET formation, immunofluorescent staining and scanning electron microscopy images” value (human neutrophils [5])?
A: The value was “effectively inhibited”.

Q: What about the “kinase activity of Src” value (Src) of the same compound?
A: The value was “inhibited”.

Q: And the “expression of CD18 in fMLF-stimulated human neutrophils” value (CD18 (integrin β2))?
A: The value was “significantly attenuated”.

Q: What about the “phosphorylation of ERK” value (p-ERK) of the same compound?
A: The value was “significantly inhibited”.

Q: What about the “phosphorylation of Hck (Y410)” value (Hck (Y410)) of the same compound?
A: Its value is “significantly inhibited”.

Q: What about the “phosphorylation of Lyn (Y396)” value (Lyn (Y396)) of the same compound?
A: Its value is “significantly inhibited”.

Q: What about the “phosphorylation of Akt” value (Akt (S473)) of the same compound?
A: Its value is “but not”.

Q: And the “phosphorylation of Fgr (Y412)” value (Fgr (Y412))?
A: The value was “significantly inhibited”.

Q: What about the “adhesion function of fMLF-activated neutrophils (adhered on bEnd.3 cells)” value (human neutrophils [6]) of the same compound?
A: The value was “inhibited”.

Q: What about the “kinase activity of Fgr” value (Fgr) of the same compound?
A: Its value is “inhibited”.

Source: patent US20220339122A1, “METHODS FOR THE TREATMENT OF DISEASES ASSOCIATED WITH DYSREGULATED ACTIVATION AND RECRUITMENT OF NEUTROPHILS” (Chang Gung University, priority 2021, published 2022)
